# Measured values published in ChEMBL document CHEMBL1201862, “PubChem BioAssay data set” (2004).
#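 Cells were grown in 96-well plates and exposed to each compound for 48 hours at five concentrations; endpoints were interpolated linearly between bracketing concentrations, or set to the highest concentration if not reached. The concentration for 50% growth inhibition is given as GI50.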 Active and inactive are the calls of the source. Rule as the data show it: active = GI50 up to about 1.1 µM and inactive = higher.
# What was measured:
# Assay in all cases: growth of human tumour cells (NCI), 48 h
# [1] = test system: 786-0
# [2] = test system: A498
# [3] = test system: A549
# [4] = test system: ACHN
# [5] = test system: CAKI-1
# [6] = test system: COLO 205
# [7] = test system: DMS-114
# [8] = test system: DMS-273
# [9] = test system: EKVX
# [10] = test system: HCC 2998
# [11] = test system: HCT-116
# [12] = test system: HCT-15
# [13] = test system: HL-60
# [14] = test system: HOP-62
# [15] = test system: HOP-92
# [16] = test system: HT-29
# [17] = test system: IGROV-1
# [18] = test system: K562
# [19] = test system: KM-20L2
# [20] = test system: KM12
# [21] = test system: LOX IMVI
# [22] = test system: M14
# [23] = test system: M19-MEL
# [24] = test system: MOLT-4
# [25] = test system: Malme-3M
# [26] = test system: NCI-H226
# [27] = test system: NCI-H23
# [28] = test system: NCI-H460
# [29] = test system: NCI-H522
# [30] = test system: OVCAR-3
# [31] = test system: OVCAR-4
# [32] = test system: OVCAR-5
# [33] = test system: OVCAR-8
# [34] = test system: RPMI-8226
# [35] = test system: RXF 393
# [36] = test system: SF-268
# [37] = test system: SF-295
# [38] = test system: SF-539
# [39] = test system: SK-MEL-28
# [40] = test system: SK-MEL-2
# [41] = test system: SK-MEL-5
# [42] = test system: SK-OV-3
# [43] = test system: SN12C
# [44] = test system: SNB-19
# [45] = test system: SNB-75
# [46] = test system: SNB-78
# [47] = test system: SR
# [48] = test system: SW-620
# [49] = test system: TK-10
# [50] = test system: U-251
# [51] = test system: UACC-257
# [52] = test system: UACC-62
# [53] = test system: UO-31
# [54] = test system: CCRF-CEM
# [55] = test system: DLD-1
# [56] = test system: LXFL 529
smiles,measurement,setting,value
COC(=O)C1C2CC3C(OC(=O)C31)C2I (centres undefined),GI50,[1],> 100 µM (inactive)
same,GI50,[2],> 100 µM (inactive)
same,GI50,[3],> 100 µM (inactive)
same,GI50,[4],> 100 µM (inactive)
same,GI50,[5],> 100 µM (inactive)
same,GI50,[6],> 100 µM (inactive)
same,GI50,[7],> 100 µM (inactive)
same,GI50,[8],> 100 µM (inactive)
same,GI50,[9],> 100 µM (inactive)
same,GI50,[10],> 100 µM (inactive)
same,GI50,[11],> 100 µM (inactive)
same,GI50,[12],> 100 µM
same,GI50,[13],> 100 µM (inactive)
same,GI50,[14],> 100 µM (inactive)
same,GI50,[15],> 100 µM (inactive)
same,GI50,[16],> 100 µM (inactive)
same,GI50,[17],> 100 µM (inactive)
same,GI50,[18],> 100 µM (inactive)
same,GI50,[19],> 100 µM (inactive)
same,GI50,[20],> 100 µM (inactive)
same,GI50,[21],> 100 µM (inactive)
same,GI50,[22],> 100 µM (inactive)
same,GI50,[23],> 100 µM (inactive)
same,GI50,[24],> 100 µM (inactive)
same,GI50,[25],> 100 µM (inactive)
same,GI50,[26],> 100 µM (inactive)
same,GI50,[27],> 100 µM (inactive)
same,GI50,[28],> 100 µM (inactive)
same,GI50,[29],> 100 µM (inactive)
same,GI50,[30],> 100 µM (inactive)
same,GI50,[31],> 100 µM (inactive)
same,GI50,[32],> 100 µM (inactive)
same,GI50,[33],> 100 µM (inactive)
same,GI50,[34],> 100 µM (inactive)
same,GI50,[35],> 10 µM (inactive)
same,GI50,[36],> 100 µM (inactive)
same,GI50,[37],> 100 µM (inactive)
same,GI50,[38],> 100 µM (inactive)
same,GI50,[39],> 10 µM (inactive)
same,GI50,[40],> 100 µM (inactive)
same,GI50,[41],> 100 µM (inactive)
same,GI50,[42],> 100 µM (inactive)
same,GI50,[43],> 100 µM (inactive)
same,GI50,[44],> 100 µM (inactive)
same,GI50,[45],> 100 µM (inactive)
same,GI50,[46],> 100 µM (inactive)
same,GI50,[47],> 100 µM (inactive)
same,GI50,[48],> 100 µM (inactive)
same,GI50,[49],> 10 µM (inactive)
same,GI50,[50],> 100 µM (inactive)
same,GI50,[51],> 100 µM (inactive)
same,GI50,[52],> 100 µM (inactive)
same,GI50,[53],> 100 µM (inactive)
Cc1ccc(S(=O)(=O)N(/N=C/C=C/c2ccccc2)c2nnc(-c3ccccc3)c(-c3ccccc3)n2)cc1,GI50,[1],20.8 µM (inactive)
same,GI50,[2],36.8 µM (inactive)
same,GI50,[3],16.9 µM (inactive)
same,GI50,[4],29.8 µM (inactive)
same,GI50,[5],17.9 µM (inactive)
same,GI50,[54],21.9 µM (inactive)
same,GI50,[6],16.9 µM (inactive)
same,GI50,[55],21.9 µM (inactive)
same,GI50,[7],16.3 µM (inactive)
same,GI50,[8],18.9 µM (inactive)
same,GI50,[9],24.9 µM (inactive)
same,GI50,[10],13.3 µM (inactive)
same,GI50,[12],25.6 µM
same,GI50,[13],14.9 µM (inactive)
same,GI50,[14],18.3 µM (inactive)
same,GI50,[15],19 µM (inactive)
same,GI50,[16],0.619 µM (active)
same,GI50,[17],34.6 µM (inactive)
same,GI50,[18],15 µM (inactive)
same,GI50,[19],17.9 µM (inactive)
same,GI50,[20],23 µM (inactive)
same,GI50,[21],21.5 µM (inactive)
same,GI50,[22],20.8 µM (inactive)
same,GI50,[23],28.1 µM (inactive)
same,GI50,[24],12.9 µM (inactive)
same,GI50,[25],30 µM (inactive)
same,GI50,[26],18.3 µM (inactive)
same,GI50,[27],15.8 µM (inactive)
same,GI50,[28],21.7 µM (inactive)
same,GI50,[29],15.9 µM (inactive)
same,GI50,[30],20.1 µM (inactive)
same,GI50,[31],9.82 µM (inactive)
same,GI50,[32],41.2 µM (inactive)
same,GI50,[33],25.6 µM (inactive)
same,GI50,[34],11.3 µM (inactive)
same,GI50,[35],19 µM (inactive)
same,GI50,[36],25.9 µM (inactive)
same,GI50,[37],19 µM (inactive)
same,GI50,[38],16.1 µM (inactive)
same,GI50,[39],26.3 µM (inactive)
same,GI50,[40],17 µM (inactive)
same,GI50,[41],14.9 µM (inactive)
same,GI50,[42],34.5 µM (inactive)
same,GI50,[43],38.4 µM (inactive)
same,GI50,[44],71.9 µM (inactive)
same,GI50,[45],22.4 µM (inactive)
same,GI50,[46],16.8 µM (inactive)
same,GI50,[48],30.4 µM (inactive)
same,GI50,[49],24.7 µM (inactive)
same,GI50,[50],32.1 µM (inactive)
same,GI50,[51],13.3 µM (inactive)
same,GI50,[52],26.7 µM (inactive)
same,GI50,[53],5.86 µM (inactive)
C#Cc1cccc(NC(=O)/C=C\C(=O)O)c1,GI50,[1],> 100 µM (inactive)
same,GI50,[2],> 100 µM (inactive)
same,GI50,[3],> 100 µM (inactive)
same,GI50,[4],> 100 µM (inactive)
same,GI50,[5],> 100 µM (inactive)
same,GI50,[54],> 100 µM (inactive)
same,GI50,[6],> 100 µM (inactive)
same,GI50,[55],> 100 µM (inactive)
same,GI50,[9],> 100 µM (inactive)
same,GI50,[11],> 100 µM (inactive)
same,GI50,[13],> 100 µM (inactive)
same,GI50,[15],> 100 µM (inactive)
same,GI50,[16],> 100 µM (inactive)
same,GI50,[18],> 100 µM (inactive)
same,GI50,[19],> 100 µM (inactive)
same,GI50,[20],> 100 µM (inactive)
same,GI50,[56],> 100 µM (inactive)
same,GI50,[24],> 100 µM (inactive)
same,GI50,[25],> 100 µM (inactive)
same,GI50,[26],> 100 µM (inactive)
same,GI50,[27],> 100 µM (inactive)
same,GI50,[28],> 100 µM (inactive)
same,GI50,[29],> 100 µM (inactive)
same,GI50,[31],> 100 µM (inactive)
same,GI50,[32],> 100 µM (inactive)
same,GI50,[33],> 100 µM (inactive)
same,GI50,[34],> 100 µM (inactive)
same,GI50,[36],> 100 µM (inactive)
same,GI50,[37],> 100 µM (inactive)
same,GI50,[39],> 100 µM (inactive)
same,GI50,[40],> 100 µM (inactive)
same,GI50,[41],> 100 µM (inactive)
same,GI50,[42],> 100 µM (inactive)
same,GI50,[43],> 100 µM (inactive)
same,GI50,[44],> 100 µM (inactive)
same,GI50,[45],> 100 µM (inactive)
same,GI50,[46],> 100 µM (inactive)
same,GI50,[48],> 100 µM (inactive)
same,GI50,[49],> 100 µM (inactive)
same,GI50,[50],> 100 µM (inactive)
same,GI50,[51],> 100 µM (inactive)
same,GI50,[52],> 100 µM (inactive)
same,GI50,[53],> 100 µM (inactive)
CC1=CC(=O)c2[nH]c3ccccc3c2C1=O [MURRAYAQUINONE A],GI50,[3],> 25 µM (inactive)
same,GI50,[7],4.26 µM (inactive)
same,GI50,[14],> 25 µM (inactive)
same,GI50,[19],> 25 µM (inactive)
same,GI50,[30],4.53 µM (inactive)
same,GI50,[31],4.16 µM (inactive)
same,GI50,[32],5.4 µM (inactive)
same,GI50,[33],4.02 µM (inactive)
same,GI50,[34],5.96 µM (inactive)
same,GI50,[44],> 25 µM (inactive)
